Measured values: US7550467B2 (Schering Corporation, priority 2004, dated 2009)

Biological target: T1, MCH receptor (Homo sapiens, UniProt Q99705)
T1 construct: expressed in transfected cells; host or cells: CHO cells
Experiment: MCH Receptor Binding Assay ([125I]-MCH, SPA beads, membranes from CHO cells expressing the MCH receptor)
Experimental: MCH Receptor Binding Assay:
Membranes from CHO cells expressing the MCH receptor were prepared by lysing cells with 5 mM HEPES for 15 minutes at 4° C. Cell lysates were centrifuged ([…], 15 minutes) and the pellet was resuspended in 5 mM HEPES. For each 96-well plate (Microlite, Dynex Technologies), 1 mg of cell membranes were incubated with 10 mg of wheat germ agglutinin SPA beads (Amersham) for 5 minutes at 4° C. in a volume of 10 ml of binding buffer (25 mM HEPES, 10 mM MGCl2, 10 mM NaCl, 5 mM MnCl2, 0.1% BSA). The membrane/bead mixture was centrifuged (1500×g, 3.5 min), the supernatant was aspirated, and the pellet was resuspended in 10 ml binding buffer. The centrifugation, aspiration and resuspension were then repeated. The membrane/bead mixture (100 μl) was then added to 96-well plates containing 50 μl of 500 pM [^125I]-MCH (NEN) and […] of the appropriate concentration of compound (4X the desired final concentration). Nonspecific binding was determined by including 1 μM MCH in the binding reaction. The binding reaction was incubated at room temperature for 2 hours. Plates were then analyzed in a TOPCOUNT microplate scintillation counter (Packard). Data was analyzed and Ki values were determined using GraphPad Prism.

T1 sequence (Q99705 whole entry): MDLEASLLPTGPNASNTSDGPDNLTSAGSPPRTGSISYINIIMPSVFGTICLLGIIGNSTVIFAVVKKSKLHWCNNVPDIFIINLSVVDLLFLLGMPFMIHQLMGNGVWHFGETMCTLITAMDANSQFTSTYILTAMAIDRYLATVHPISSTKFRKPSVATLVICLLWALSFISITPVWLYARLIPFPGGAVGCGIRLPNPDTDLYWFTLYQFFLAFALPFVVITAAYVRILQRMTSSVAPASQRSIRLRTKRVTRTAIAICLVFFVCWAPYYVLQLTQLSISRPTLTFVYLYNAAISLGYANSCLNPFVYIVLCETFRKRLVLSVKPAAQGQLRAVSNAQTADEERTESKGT

SMILES	Ki (Ki rating (class)) [nM]	Ki ([125I]-MCH) [nM]
CN1CCN(CCCN(C(=O)Nc2ccc(F)c(Cl)c2)C2CCc3ccc(C#N)cc3C2)CC1 (centres unmarked) [Compound III, 3-(3-chloro-4-fluoro-phenyl)-1-(7-cyano-1,2,3,4-tetrahydro-naphthalen-2-yl)-1-[3-(4-methyl-piperazin-1-yl)-propyl]-urea]	< 1000	14
CN1CCN(CCCN(C(=O)Nc2ccc(F)c(Cl)c2)C2CCc3ccc(NS(C)(=O)=O)cc3C2)CC1 (centres unmarked) [Compound VIII, N-(7-{3-(3-chloro-4-fluoro-phenyl)-1-[3-(4-methyl-piperazin-1-yl)-propyl]-ureido}-5,6,7,8-tetrahydro-naphthalen-2-yl)-methanesulfonamide]	< 1000	96
CN1CCN(CCCN(C(=O)Nc2ccc(F)c(Cl)c2)C2CCc3ccc(N)cc3C2)CC1 (centres unmarked)	< 1000	
C[C@@H]1CN(CCCN(C(=O)Nc2cc(Cl)nc(Cl)c2)C2COc3ccc(Br)cc3C2)[C@@H](C)CN1 (some centres unmarked) [Compound XI]	< 1000	
C[C@@H]1CN(CCCN(C(=O)Nc2ccc(F)c(Cl)c2)C2COc3ccc(Br)cc3C2)[C@@H](C)CN1C(=O)OC(C)(C)C (some centres unmarked) [Compound XXVI]	1000 to 2000	
CNS(=O)(=O)c1ccc2c(c1)CC(N(CCCN1CCN(C)CC1)C(=O)Nc1ccc(F)c(C(F)(F)F)c1)CC2 (centres unmarked) [Compound XXVII, 7-{3-(4-fluoro-3-trifluoromethyl-phenyl)-1-[3-(4-methyl-piperazin-1-yl)-propyl]-ureido}-5,6,7,8-tetrahydro-naphthalene-2-sulfonic acid methylamide]	1000 to 2000	
CN1CCN(CCCN(C(=O)Nc2cc(Cl)nc(Cl)c2)C2CCc3ccc(S(=O)(=O)N(C)C)cc3C2)CC1 (centres unmarked) [Compound XXXII]	> 2000	
CN1CCN(CCCN(C(=O)Nc2ccc(F)c(Cl)c2)C2CCc3ccc(S(=O)(=O)N(C)C)cc3C2)CC1 (centres unmarked) [Compound XXX, 7-{3-(3-chloro-4-fluoro-phenyl)-1-[3-(4-methyl-piperazin-1-yl).-propyl]-ureido}-5,6,7,8-tetrahydro-naphthalene-2-sulfonic acid dimethylamide]	> 2000	
CC(=O)Nc1ccc2c(c1)CC(N(CCCN1CCN(C)CC1)C(=O)Nc1ccc(F)c(Cl)c1)CC2 (centres unmarked) [Compound I, N-(7-{3-(3-chloro-4-fluoro-phenyl)-1-[3-(4methyl-piperazin-1-yl)-propyl]-ureido}-5,6,7,8-tetrahydro-naphthalen-2yl)-acetamide]	< 1000	6
COc1ccc2c(c1)CC(N(CCCN1CCN(C)CC1)C(=O)Nc1ccc(F)c(Cl)c1)CC2 (centres unmarked) [Compound VII, 3-(3-chloro-4-fluoro-phenyl)-1-(7-methoxy-1,2,3,4-tetrahydro-naphthalen-2-yl)-1-[3-(4-methyl-piperazin-1-yl)-propyl]-urea]	< 1000	92
CN1CCN(CCCN(C(=O)Nc2ccc(F)c(Cl)c2)C2CCc3cc(C#N)ccc3C2)CC1 (centres unmarked) [Compound XVI, 3-(3-chloro-4-fluoro-phenyl)-1-(6-cyano-1,2,3,4-tetrahydro-naphthalen-2-yl)-1-[3-(4-methyl-piperazin-1-yl)-propyl]-urea]	< 1000	
C[C@@H]1CN(C(=O)OC(C)(C)C)[C@@H](C)CN1CCCN(C(=O)Nc1ccc(F)c(Cl)c1)C1COc2ccc(Br)cc2C1 (stereo partly drawn) [Compound XXV, (2S,5R)-4-{3-[1-(6-bromo-chroman-3-yl)-3-(3-chloro-4-fluoro-phenyl)-ureido]-propyl}-2,5-dimethyl-piperazine-1-carboxylic acid tert-butyl ester]	1000 to 2000	
CN1CCN(CCCN(C(=O)Nc2ccc(F)c(Cl)c2)C2CCc3ccc([N+](=O)[O-])cc3C2)CC1 (centres unmarked) [Compound II, 3-(3-chloro-4-fluoro-phenyl)-1-[3-(4-methyl-piperazin-1-yl)-propyl]-1-(7-nitro-1,2,3,4-tetrahydro-naphthalen-2-yl)-urea]	< 1000	11
CC(C)C(=O)Nc1ccc2c(c1)CC(N(CCCN1CCN(C)CC1)C(=O)Nc1ccc(F)c(Cl)c1)CC2 (centres unmarked) [Compound IV, N-(7-{3-(3-chloro-4-fluoro-phenyl)-1-[3-(4-methyl-piperazin-1-yl)-propyl]-ureido}-5,6,7,8-tetrahydro-naphthalen-2-yl)-isobuty ramide]	< 1000	61
COc1ccc2c(c1)CCC(N(CCCN1CCN(C)CC1)C(=O)Nc1ccc(F)c(Cl)c1)C2 (centres unmarked) [Compound XII, 3-(3-chloro-4-fluoro-phenyl)-1-(6-methoxy-1,2,3,4-tetrahydro-naphthalen-2-yl)-1-[3-(4-methyl-piperazin-1-yl)-propyl]-urea]	< 1000	
C[C@@H]1CN(CCCN(C(=O)Nc2ccc(F)c(Cl)c2)C2COc3ccc(Br)cc3C2)[C@@H](C)CN1 (some centres unmarked) [Compound XXI]	< 1000	

SMILES	Ki (Ki rating (class)) [nM]	Ki ([125I]-MCH) [nM]
C[C@@H]1CN(C(=O)OC(C)(C)C)[C@@H](C)CN1CCCN(C(=O)Nc1cc(Cl)nc(Cl)c1)C1COc2ccc(Br)cc2C1 (some centres unmarked) [Compound XV]	< 1000	
C[C@@H]1CN[C@@H](C)CN1CCCN(C(=O)Nc1ccc(F)c(Cl)c1)C1COc2ccc(Br)cc2C1 (stereo partly drawn) [Compound XVIII, (2R,5S)-1-(6-bromo-chroman-3-yl)-3-(3-chloro-4-fluoro-phenyl)-1-[3-(2,5-dimethyi-piperazin-1-yl)-propyl]-urea]	< 1000	
CN1CCN(CCCN(C(=O)Nc2ccc(F)c(C(F)(F)F)c2)C2CCc3ccc(S(=O)(=O)N(C)C)cc3C2)CC1 (centres unmarked) [Compound XXXI, 7-{3-(4-fluoro-3-trifluoromethyl-phenyl)-1-[3-(4-methyl-piperazin-1-yl)-propyl]-ureido}-5,6,7,8-tetrahydro-naphthalene-2-sulfonic acid dimethylamide]	> 2000	
CN1CCN(CCCN(C(=O)Nc2ccc(F)c(Cl)c2)C2CCc3ccccc3C2)CC1 (centres unmarked) [Compound XVII, 3-(3-chloro-4-fluoro-phenyl)-1-[3-(4-methyl-piperazin-1-yl)-propyl]-1-(1,2,3,4-tetrahydro-naphthalen-2-yl)-urea]	< 1000	
CNS(=O)(=O)c1ccc2c(c1)CC(N(CCCN1CCN(C)CC1)C(=O)Nc1cc(Cl)nc(Cl)c1)CC2 (centres unmarked) [Compound XXII, 7-{3-(2,6-dichloro-pyridin-4-yl)-1-[3-(4-methyl-piperazin-1-yl)-propyl]-ureido}-5,6,7,8-tetrahydro-naphthalene-2-sulfonic acid methylamide]	< 1000	
C[C@@H]1CN[C@@H](C)CN1CCCN(C(=O)Nc1cc(Cl)nc(Cl)c1)C1COc2ccc(Br)cc2C1 (some centres unmarked) [Compound V]	< 1000	63
CCNC(=O)Nc1ccc2c(c1)CC(N(CCCN1CCN(C)CC1)C(=O)Nc1ccc(F)c(Cl)c1)CC2 (centres unmarked) [Compound IX, 1-(7-{3-(3-chloro-4-fluoro-phenyl)-1-[3-(4-methyl-piperazin-1-yl)-propyl]-ureido}-5,6,7,8-tetrahydro-naphthalen-2-yl)-3-ethyl-urea]	< 1000	157
CN1CCN(CCCN(C(=O)Nc2ccc(F)c(Cl)c2)C2CCc3ccc(S(C)(=O)=O)cc3C2)CC1 (centres unmarked)	1000 to 2000	
COc1cc2c(cc1OC)CC(N(CCCN1CCN(C)CC1)C(=O)Nc1cc(Cl)nc(Cl)c1)CC2 (centres unmarked) [Compound XX, 3-(2,6-dichloro-pyridin-4-yl)-1-(6,7-dimethoxy-1,2,3,4-tetrahydro-naphthalen-2-yl)-1-[3-(4-methyl-piperazin-1-yl)-propyl]-urea]	< 1000	
CN1CCN(CCCN(C(=O)Nc2ccc(F)c(Cl)c2)C2Cc3ccccc3C2)CC1 [Compound XIX, 3-(3-chloro-4-fluoro-phenyl)-1-indan-2-yl-1-[3-(4-methyl-piperazin-1-yl)-propyl]-urea]	< 1000	
COc1cc2c(cc1OC)CC(N(CCCN1CCN(C)CC1)C(=O)Nc1ccc(F)c(Cl)c1)CC2 (centres unmarked) [Compound XXVIII, 3-(3-chloro-4-fluoro-phenyl)-1-(6,7-dimethoxy-1,2,3,4-tetrahydro-naphthalen-2-yl)-1-[3-(4-methyl-piperazin-1-yl)-propyl]-urea]	> 2000	
CN1CCN(CCCN(C(=O)Nc2cc(Cl)nc(Cl)c2)C2CCc3cc(C#N)ccc3C2)CC1 (centres unmarked) [Compound VI, 3-(2,6-dichloro-pyridin-4-yl)-1-(6-cyano-1,2,3,4-tetrahydro-naphthalen-2-yl)-1-[3-(4-methyl-piperazin-1-yl)-propyl]-urea]	< 1000	65
CN1CCN(CCCN(C(=O)Nc2cc(Cl)nc(Cl)c2)C2CCc3ccc(S(C)(=O)=O)cc3C2)CC1 (centres unmarked) [Compound XIII, 3-(2,6-dichloro-pyridin-4-yl)-1-(7-methanesulfonyl-1,2,3,4-tetrahydro-naphthalen-2-yl)-1-[3-(4-methyl-piperazin-1-yl)-propyl]-urea]	< 1000	
C[C@@H]1CN(CCCN(C(=O)Nc2cc(Cl)nc(Cl)c2)C2COc3ccc(Br)cc3C2)[C@@H](C)CN1C(=O)OC(C)(C)C (some centres unmarked) [XXIII]	1000 to 2000	
CN1CCN(CCCN(C(=O)Nc2ccc(F)c(Cl)c2)C2CCc3cc(Br)ccc3C2)CC1 (centres unmarked) [Compound X, 1-(6-bromo-1,2,3,4-tetrahydro-naphthalen-2-yl)-3-(3-chloro-4-fluoro-phenyl)-1-[3-(4-methyl-piperazin-1-yl)-propyl]-urea]	< 1000	178
